From patent US9758529B2, “Fused dihydro-4H-pyrazolo[5,1-C][1,4]oxazinyl compounds and analogs for treating CNS disorders” (Sunovion Pharmaceuticals Inc., priority 2015, dated 2017)

Test system: mice
Assay: Neuropharmacological Assay (SmartCube)
Format: in vivo
Conditions: i.p. 15 min before behavioral test; 3 doses, most efficacious dose(s) presented
Description: Neurosci. […] As reported in Roberds, because psychiatric diseases generally result from disorders of cell-cell communication or circuitry, intact systems are useful in detecting improvement in disease-relevant endpoints. These endpoints are typically behavioral in nature, often requiring human observation and interpretation. To facilitate testing of multiple compounds for behavioral effects relevant to psychiatric disease, PsychoGenics, Inc. (Tarrytown, N.Y., “PGI”) developed SmartCube™, an automated system in which behaviors of compound-treated mice are captured by digital video and analyzed with computer algorithms. […] PGI Analytical Systems uses data from SmartCube™ to compare the behavioral signature of a test compound to a database of behavioral signatures obtained using a large set of diverse reference compounds. (The composition of the database as well as validation of the method is further described in Roberds). In this way, the neuropharmacological effects of a test compound can be predicted by similarity to major classes of compounds, such as antipsychotics, anxiolytics and antidepressants.
The SmartCube™ system produces an activity signature indicating the probability that the activity of the test compound at the administered dose matches a given class of neuropharmacological agents. (See, e.g., Roberds, FIGS. 2 and 3). The test compound is simultaneously compared against multiple classes of agents; thus, a separate probability is generated for each behavioral effect measured (e.g., anxiolytic activity, analgesic activity, etc.). In Table 2 and 2B, these probabilities are reported for each behavioral effect measured as follows:
where LOQ is the limit of quantification.
Provided compounds were dissolved in a mixture of Pharmasolve™ (N-methyl-2-pyrrolidone), polyethylene glycol and propylene glycol, and were injected i.p. 15 min. before the behavioral test. For each compound, injections were administered at 3 different doses. For each behavioral effect measured, results for the most efficacious dose(s) are presented.

SMILES | AD: ADHD (probability of class match) | AG: analgesic (probability of class match) | AX: anxiolytic (probability of class match) | CE: cognitive enhancer (probability of class match) | DP: anti-depressant (probability of class match) | HA: hallucinogen (probability of class match) | MS: mood stabilizer (probability of class match) | PS: anti-psychotic (probability of class match) | SD: sedative hypnotic (probability of class match) | UN: uncharacterized CNS activity (probability of class match) | XG: anxiogenic (probability of class match)
CNC[C@H]1OCCn2nc3ccccc3c21.Cl [Compound 2, (R)-(3,4-dihydro-1H-[1,4]oxazino[4,3-b]indazol-1-yl)-N-methylmethanaminium chloride] | ++ (5%≦ ++ <25%) | + (LOQ≦ + <5%) | ++ (5%≦ ++ <25%) | + (LOQ≦ + <5%) | ++++ (50%≦ ++++) | ++++ (50%≦ ++++) | + (LOQ≦ + <5%) | + (LOQ≦ + <5%) | + (LOQ≦ + <5%) | + (LOQ≦ + <5%) | + (LOQ≦ + <5%)
CN(C)C[C@@H]1OCCn2nc3ccccc3c21 [Compound 3, (S)-(3,4-dihydro-1H-[1,4]oxazino[4,3-b]indazol-1-yl)-N,N-dimethylmethanaminium chloride] | + (LOQ≦ + <5%) | + (LOQ≦ + <5%) | + (LOQ≦ + <5%) | + (LOQ≦ + <5%) | ++ (5%≦ ++ <25%) | + (LOQ≦ + <5%) | + (LOQ≦ + <5%) | ++ (5%≦ ++ <25%) | + (LOQ≦ + <5%) | +++ (25%≦ +++ <50%) | + (LOQ≦ + <5%)
CN(C)C[C@H]1OCCn2nc3ccccc3c21.Cl [Compound 4, (R)-(3,4-dihydro-1H-[1,4]oxazino[4,3-b]indazol-1-yl)-N,N-dimethylmethanaminium chloride] | ++ (5%≦ ++ <25%) | ++ (5%≦ ++ <25%) | + (LOQ≦ + <5%) | ++ (5%≦ ++ <25%) | ++++ (50%≦ ++++) | ++ (5%≦ ++ <25%) | + (LOQ≦ + <5%) | + (LOQ≦ + <5%) | + (LOQ≦ + <5%) | ++ (5%≦ ++ <25%) | + (LOQ≦ + <5%)
CNCC1OCCn2nc3ccc(Cl)cc3c21.Cl (stereo not shown) [Compound 5, 1-(9-chloro-3,4-dihydro-1H-[1,4]oxazino[4,3-b]indazol-1-yl)-N-methylmethanaminium chloride] | + (LOQ≦ + <5%) | ++ (5%≦ ++ <25%) | + (LOQ≦ + <5%) | + (LOQ≦ + <5%) | ++ (5%≦ ++ <25%) | + (LOQ≦ + <5%) | + (LOQ≦ + <5%) | + (LOQ≦ + <5%) | + (LOQ≦ + <5%) | + (LOQ≦ + <5%) | + (LOQ≦ + <5%)
CN(C)CC1OCCn2nc3ccc(Cl)cc3c21.Cl (stereo not shown) [Compound 6, 1-(9-chloro-3,4-dihydro-1H-[1,4]oxazino[4,3-b]indazol-1-yl)-N,N-dimethylmethanaminium chloride] | + (LOQ≦ + <5%) | ++ (5%≦ ++ <25%) | ++ (5%≦ ++ <25%) | ++ (5%≦ ++ <25%) | +++ (25%≦ +++ <50%) | + (LOQ≦ + <5%) | + (LOQ≦ + <5%) | ++ (5%≦ ++ <25%) | + (LOQ≦ + <5%) | + (LOQ≦ + <5%) | + (LOQ≦ + <5%)
CNCC1OCCn2nc3ccc(F)cc3c21 (stereo not shown) [Compound 7, 1-(9-fluoro-3,4-dihydro-1H-[1,4]oxazino[4,3-b]indazol-1-yl)-N-methylmethanaminium chloride] | + (LOQ≦ + <5%) | ++ (5%≦ ++ <25%) | + (LOQ≦ + <5%) | + (LOQ≦ + <5%) | ++++ (50%≦ ++++) | + (LOQ≦ + <5%) | + (LOQ≦ + <5%) | + (LOQ≦ + <5%) | + (LOQ≦ + <5%) | + (LOQ≦ + <5%) | + (LOQ≦ + <5%)
CN(C)CC1OCCn2nc3ccc(F)cc3c21.Cl (stereo not shown) [Compound 8, 1-(9-fluoro-3,4-dihydro-1H-[1,4]oxazino[4,3-b]indazol-1-yl)-N,N-dimethylmethanaminium chloride] | + (LOQ≦ + <5%) | ++ (5%≦ ++ <25%) | ++ (5%≦ ++ <25%) | ++ (5%≦ ++ <25%) | +++ (25%≦ +++ <50%) | + (LOQ≦ + <5%) | + (LOQ≦ + <5%) | ++ (5%≦ ++ <25%) | + (LOQ≦ + <5%) | + (LOQ≦ + <5%) | ++ (5%≦ ++ <25%)
Cl.NCC1OCCn2nc3ccc(F)cc3c21 (stereo not shown) [Compound 9, (9-fluoro-3,4-dihydro-1H-[1,4]oxazino[4,3-b]indazol-1-yl)methanaminium chloride] | ++ (5%≦ ++ <25%) | ++ (5%≦ ++ <25%) | + (LOQ≦ + <5%) | ++ (5%≦ ++ <25%) | ++ (5%≦ ++ <25%) | + (LOQ≦ + <5%) | + (LOQ≦ + <5%) | + (LOQ≦ + <5%) | + (LOQ≦ + <5%) | +++ (25%≦ +++ <50%) | + (LOQ≦ + <5%)
CNCC1OCCn2nc3cc(F)ccc3c21 (stereo not shown) [Compound 10, 1-(8-fluoro-3,4-dihydro-1H-[1,4]oxazino[4,3-b]indazol-1-yl)-N-methylmethanaminium] | + (LOQ≦ + <5%) | ++ (5%≦ ++ <25%) | ++ (5%≦ ++ <25%) | + (LOQ≦ + <5%) | ++++ (50%≦ ++++) | + (LOQ≦ + <5%) | + (LOQ≦ + <5%) | ++ (5%≦ ++ <25%) | + (LOQ≦ + <5%) | + (LOQ≦ + <5%) | ++ (5%≦ ++ <25%)
CN(C)CC1OCCn2nc3cc(F)ccc3c21.Cl (stereo not shown) [Compound 11, 1-(8-fluoro-3,4-dihydro-1H-[1,4]oxazino[4,3-b]indazol-1-yl)-N,N-dimethylmethanaminium] | + (LOQ≦ + <5%) | + (LOQ≦ + <5%) | + (LOQ≦ + <5%) | + (LOQ≦ + <5%) | +++ (25%≦ +++ <50%) | + (LOQ≦ + <5%) | + (LOQ≦ + <5%) | ++ (5%≦ ++ <25%) | ++ (5%≦ ++ <25%) | + (LOQ≦ + <5%) | + (LOQ≦ + <5%)
Cl.NCC1OCCn2nc3cc(F)ccc3c21 (stereo not shown) [Compound 12, (8-fluoro-3,4-dihydro-1H-[1,4]oxazino[4,3-b]indazol-1-yl)methanaminium] | + (LOQ≦ + <5%) | + (LOQ≦ + <5%) | + (LOQ≦ + <5%) | + (LOQ≦ + <5%) | + (LOQ≦ + <5%) | + (LOQ≦ + <5%) | + (LOQ≦ + <5%) | + (LOQ≦ + <5%) | + (LOQ≦ + <5%) | + (LOQ≦ + <5%) | + (LOQ≦ + <5%)
